Assay results from PubChem BioAssay (NCI).
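Interpolation was linear, between the two tested concentrations surrounding the appropriate level; five concentrations were tested over 48 hours in 96-well plates. GI50: concentration for 50% inhibition of growth. At the TGI there is no net growth.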

Legend:
Assay in all cases: NCI tumour cell line growth inhibition, 48 h
[1] = tested on: A549 NSCLC
[2] = tested on: HCT-116 colon
[3] = tested on: HCT-15 colon
[4] = tested on: HOP-92 NSCLC
[5] = tested on: HS 578T breast
[6] = tested on: KM12 colon
[7] = tested on: SK-OV-3 ovarian
[8] = tested on: U251 CNS
[9] = tested on: DMS 114 small cell lung
[10] = tested on: M19-MEL melanoma

CC(=O)OC1Oc2cc(C)c(C)cc2-c2oc(=O)c(-c3ccc(F)cc3)cc21 (stereo unspecified) was tested, and the GI50 [1] was 4.79 µM, the TGI [1] was > 100 µM and the GI50 [2] was 4.23 µM. The TGI [2] was 46.2 µM, the GI50 [3] was 2.68 µM and the TGI [3] was 19.1 µM. It also gave a GI50 [4] of 3.1 µM, a TGI [4] of 16.9 µM and a GI50 [5] of 8.56 µM. The TGI [5] was 68.6 µM, the GI50 [6] was 3.55 µM and the TGI [6] was 22.4 µM. For the same molecule, the GI50 [7] was 4.38 µM, the TGI [7] was 54 µM and the GI50 [8] was 4.06 µM. It also gave a TGI [8] of 45.6 µM.
In the case of CCOC(=O)NC(=O)c1cn(CCCOC(=O)NCCCCCCNC(=O)OCCCn2cc(C(=O)NC(=O)OCC)c(=O)[nH]c2=O)c(=O)[nH]c1=O, the TGI [1] is reported as > 100 µM, the TGI [9] is reported as 34.1 µM and the TGI [2] is reported as > 100 µM. For the same molecule, the TGI [3] was 65.1 µM, the TGI [4] was 45.6 µM and the TGI [10] was > 100 µM. For the same molecule, the TGI [7] was > 100 µM and the TGI [8] was 33.6 µM.
With COc1ccc(-c2cc(-c3cc(C)ccc3O)[nH]c(=O)n2)cc1 the TGI [1] was > 100 µM, the TGI [9] was > 100 µM and the TGI [2] was > 100 µM. The TGI [4] was > 100 µM, the TGI [6] was > 100 µM and the TGI [10] was > 100 µM. The TGI [7] was > 100 µM and the TGI [8] was > 100 µM.
Clc1ccc(C2=NN[C@H](c3cn(-c4ccccc4)nc3-c3ccccc3)C2)cc1 was tested, and the GI50 [1] was 3.37 µM, the TGI [1] was 14.4 µM and the GI50 [2] was 2.03 µM. The TGI [2] was 4.01 µM, the GI50 [3] was 16.5 µM and the TGI [3] was > 100 µM. It also gave a GI50 [4] of 2.24 µM, a TGI [4] of 6.88 µM and a GI50 [5] of 3.46 µM. For the same molecule, the TGI [5] was 15.9 µM, the GI50 [6] was 11.1 µM and the TGI [6] was > 100 µM. It also gave a GI50 [7] of 2.74 µM, a TGI [7] of 8.75 µM and a GI50 [8] of 3.17 µM. The TGI [8] was 11.7 µM.
In the case of S=C(c1ccc2c(c1)OCO2)N1CCN(c2cccc(Cl)c2)CC1, the GI50 [1] is reported as 0.872 µM, the TGI [1] is reported as > 40.2 µM and the GI50 [2] is reported as 0.454 µM. The TGI [2] was 14.5 µM, the GI50 [3] was 0.524 µM and the TGI [3] was > 69.3 µM. The GI50 [4] was 95.4 µM, the TGI [4] was > 100 µM and the GI50 [5] was 0.391 µM. For the same molecule, the TGI [5] was 3.54 µM, the GI50 [6] was 0.447 µM and the TGI [6] was 29.7 µM. The GI50 [7] was 2.91 µM, the TGI [7] was > 93.9 µM and the GI50 [8] was 0.61 µM. For the same molecule, the TGI [8] was > 100 µM.
For O=C(NC1CCCCC1)NS(=O)(=O)c1ccc(-n2nc3c(c2-c2ccc(Cl)cc2)Cc2ccccc2-3)cc1, the GI50 [1] was 16.6 µM, the TGI [1] was 34.6 µM and the GI50 [2] was 4.18 µM. For the same molecule, the TGI [2] was > 100 µM, the GI50 [3] was 7.79 µM and the TGI [3] was 31.2 µM. It also gave a GI50 [4] of 6.45 µM, a TGI [4] of 25 µM and a GI50 [5] of 5.03 µM. For the same molecule, the TGI [5] was 39.2 µM, the GI50 [6] was 10.6 µM and the TGI [6] was 30.4 µM. For the same molecule, the GI50 [7] was 31.6 µM, the TGI [7] was > 100 µM and the GI50 [8] was 11.7 µM. It also gave a TGI [8] of 29.7 µM.
N#Cc1c(N)nc(NCc2ccccc2)c(C#N)c1-c1ccccc1Cl was tested, and the GI50 [1] was 21.3 µM, the TGI [1] was > 100 µM and the GI50 [2] was 16.3 µM. The TGI [2] was > 100 µM, the GI50 [3] was > 100 µM and the TGI [3] was > 100 µM. For the same molecule, the GI50 [4] was 3.57 µM, the TGI [4] was 25.5 µM and the GI50 [5] was 11.3 µM. For the same molecule, the TGI [5] was 43 µM, the GI50 [6] was 47 µM and the TGI [6] was > 100 µM. The GI50 [7] was 62.7 µM, the TGI [7] was > 100 µM and the GI50 [8] was 2.46 µM. For the same molecule, the TGI [8] was 10.3 µM.
In the case of CCN(CC)CCCCNc1ncc2cc(-c3cc(OC)cc(OC)c3)c(NC(=O)NC(C)(C)C)nc2n1, the GI50 [1] is reported as 7.84 µM, the TGI [1] is reported as 23 µM and the GI50 [2] is reported as 4.13 µM. It also gave a TGI [2] of 16.3 µM, a GI50 [3] of 3.63 µM and a TGI [3] of 17.5 µM. The GI50 [4] was 2.11 µM, the TGI [4] was 18.4 µM and the GI50 [5] was 4.72 µM. The TGI [5] was 28 µM, the GI50 [6] was 9.65 µM and the TGI [6] was 23 µM. For the same molecule, the GI50 [7] was 4.91 µM, the TGI [7] was 18.2 µM and the GI50 [8] was 2.77 µM. It also gave a TGI [8] of 17.5 µM.
With CC1=NC(C(C)C)C(=O)O1 (stereo unspecified) the TGI [9] was 56.2 µM, the TGI [2] was 34.1 µM and the TGI [3] was > 100 µM. The TGI [4] was > 100 µM, the TGI [6] was > 100 µM and the TGI [10] was > 100 µM. The TGI [7] was > 100 µM and the TGI [8] was > 100 µM.
For COC1OC(COS(=O)(=O)c2ccc(C)cc2)C(O)C(OS(=O)(=O)c2ccc(C)cc2)C1OS(=O)(=O)c1ccc(C)cc1 (stereo unspecified), the TGI [1] was > 100 µM, the TGI [9] was > 100 µM and the TGI [2] was > 100 µM. The TGI [3] was > 100 µM, the TGI [6] was > 100 µM and the TGI [10] was > 100 µM. For the same molecule, the TGI [7] was > 100 µM and the TGI [8] was > 100 µM.
For C/C(=C\CCc1ccsc1)CC/C=C(\C)CCCN1CCC(CO)CC1, the GI50 [1] was 2.35 µM, the TGI [1] was 7.56 µM and the GI50 [2] was 1.67 µM. For the same molecule, the TGI [2] was 3.32 µM, the GI50 [3] was 1.86 µM and the TGI [3] was 4.01 µM. The GI50 [4] was 1.02 µM, the TGI [4] was 3.69 µM and the GI50 [5] was 2 µM. The TGI [5] was 6.19 µM, the GI50 [6] was 1.88 µM and the TGI [6] was 3.47 µM. The GI50 [7] was 5.15 µM, the TGI [7] was 18.4 µM and the GI50 [8] was 1.42 µM. It also gave a TGI [8] of 3.11 µM.
Molecule O=C(NCCNc1nccc(-c2c(-c3ccc(F)cc3)nc3sccn23)n1)c1ccccc1 has a GI50 [1] of 4.11 µM, a TGI [1] of 96.7 µM and a GI50 [2] of 4.37 µM. It also gave a TGI [2] of 35.8 µM, a GI50 [3] of 3.81 µM and a TGI [3] of 39.3 µM. For the same molecule, the GI50 [4] was 14.8 µM, the TGI [4] was 68.2 µM and the GI50 [5] was 20.4 µM. For the same molecule, the TGI [5] was > 100 µM, the GI50 [6] was 7.6 µM and the TGI [6] was 22.4 µM. It also gave a GI50 [7] of 12.5 µM, a TGI [7] of 53.8 µM and a GI50 [8] of 8.57 µM. The TGI [8] was > 100 µM.
With O=C(CN1C(=O)S/C(=C\C(Cl)=C\c2ccccc2)C1=O)NCCc1ccc(O)cc1 the GI50 [1] was 3.1 µM, the TGI [1] was > 100 µM and the GI50 [2] was 1.42 µM. It also gave a TGI [2] of 3.1 µM, a GI50 [3] of 1.52 µM and a TGI [3] of 4.56 µM. The GI50 [4] was 1.58 µM, the TGI [4] was 5.05 µM and the GI50 [5] was 2.72 µM. For the same molecule, the TGI [5] was 7.97 µM, the GI50 [6] was 1.7 µM and the TGI [6] was 3.43 µM. For the same molecule, the GI50 [7] was 3.48 µM, the TGI [7] was > 100 µM and the GI50 [8] was 2 µM. It also gave a TGI [8] of 5.16 µM.
C=C(C)[C@@H]1CC[C@]2(C(=O)O)CC[C@]3(C)[C@H](CC[C@@H]4[C@@]5(C)C/C(=C/c6ccc(OC)cc6)C(=O)C(C)(C)[C@@H]5CC[C@]43C)[C@@H]12 showed a GI50 [1] of 1.3 µM, a TGI [1] of 4.56 µM and a GI50 [2] of 1.62 µM. For the same molecule, the TGI [2] was 3.82 µM, the GI50 [3] was 1.79 µM and the TGI [3] was 4.4 µM. For the same molecule, the GI50 [4] was 0.738 µM, the TGI [4] was 3.36 µM and the GI50 [5] was 2.65 µM. It also gave a TGI [5] of 9.03 µM, a GI50 [6] of 1.71 µM and a TGI [6] of 4.12 µM. The GI50 [7] was 3.29 µM, the TGI [7] was 16.1 µM and the GI50 [8] was 1.86 µM. For the same molecule, the TGI [8] was 5.68 µM.
With COc1cccc(Cn2c(-c3nonc3NC(C)=O)nc3ccccc32)c1 the GI50 [1] was 5.81 µM, the TGI [1] was > 100 µM and the GI50 [2] was 4.94 µM. The TGI [2] was > 100 µM, the GI50 [3] was 3.59 µM and the TGI [3] was > 100 µM. For the same molecule, the GI50 [4] was 2.16 µM, the TGI [4] was 17.6 µM and the GI50 [5] was 1.87 µM. For the same molecule, the TGI [5] was 7.24 µM, the GI50 [6] was 4 µM and the TGI [6] was > 100 µM. For the same molecule, the GI50 [7] was 3.07 µM, the TGI [7] was > 100 µM and the GI50 [8] was 3.94 µM. The TGI [8] was 35.5 µM.
With COC(=O)C1=C(CS(=O)c2ccc([N+](=O)[O-])cc2[N+](=O)[O-])ON(C)C1c1ccccc1 (stereo unspecified) the TGI [1] was > 100 µM, the TGI [9] was > 66.4 µM and the TGI [2] was > 100 µM. The TGI [3] was > 78.9 µM, the TGI [6] was > 100 µM and the TGI [10] was > 100 µM. The TGI [7] was > 100 µM and the TGI [8] was > 78.6 µM.
